According to patent US9890168B2, “2,4-disubstituted 7H-pyrrolo[2,3-d]pyrimidine derivative, preparation method and medicinal use thereof” (Shanghai Haiyan Pharmaceutical Technology Co., Ltd., priority 2014, dated 2018):
Counter-ions that a name gives are not always drawn.

Experiments:
[1] = system: H1975 cells; assay: Cell inhibitory activity by MTT assay, H1975 cells; assay type: cell-based; settings: for IC50: cell growth, MTT assay, 72 hours; for Selective inhibitory activity against cell growth [IC50 (A431 cell)/IC50 (H1975 cell)]: ratio of MTT IC50 values
[2] = target: wild-type EGFR kinase (Homo sapiens (Human), UniProt P00533); assay: z'-lyte assay of inhibition activity on wild-type EGFR kinase; assay type: biochemical; settings: 10 μM ATP, 0.8 ng/μL kinase, read-out: EGFR WT (IC50/μM)
[3] = system: NIH3T3 cells; assay: Toxicity test on NIH3T3 cells by MTT assay; assay type: cell-based
[4] = system: A431 cells; assay: Cell inhibitory activity by MTT assay, A431 cells; assay type: cell-based; settings: 72 hours
[5] = target: EGFR phosphorylation in A431 (EGFR wild-type) cells (Homo sapiens (Human), UniProt P00533); assay: Inhibition of EGFR phosphorylation in A431 cells (ELISA); assay type: cell-based; settings: 1 h compound treatment, EGF stimulation, read-out: A431 cell (IC50/μM)
[6] = target: EGFR phosphorylation in H1975 (EGFR T790M mutant) cells (Homo sapiens (Human), UniProt P00533, L858R/T790M); assay: Inhibition of EGFR phosphorylation in H1975 cells (ELISA); assay type: cell-based; settings: for IC50: EGFR phosphorylation, ELISA, 1 h compound treatment, read-out: H1975 cell (IC50/μM); for Selective inhibitory activity against targets at the cell level [IC50 (A431 cell)/IC50 (H1975 cell)]: ratio of ELISA IC50 values
[7] = system: T790M mutant cell line H1975; settings: background statement; cited from earlier work
[8] = Homo sapiens, A-431, cell growth

Chain of EGFR phosphorylation in H1975 (EGFR T790M mutant) cells (P00533 25-1210 T790M/L858R): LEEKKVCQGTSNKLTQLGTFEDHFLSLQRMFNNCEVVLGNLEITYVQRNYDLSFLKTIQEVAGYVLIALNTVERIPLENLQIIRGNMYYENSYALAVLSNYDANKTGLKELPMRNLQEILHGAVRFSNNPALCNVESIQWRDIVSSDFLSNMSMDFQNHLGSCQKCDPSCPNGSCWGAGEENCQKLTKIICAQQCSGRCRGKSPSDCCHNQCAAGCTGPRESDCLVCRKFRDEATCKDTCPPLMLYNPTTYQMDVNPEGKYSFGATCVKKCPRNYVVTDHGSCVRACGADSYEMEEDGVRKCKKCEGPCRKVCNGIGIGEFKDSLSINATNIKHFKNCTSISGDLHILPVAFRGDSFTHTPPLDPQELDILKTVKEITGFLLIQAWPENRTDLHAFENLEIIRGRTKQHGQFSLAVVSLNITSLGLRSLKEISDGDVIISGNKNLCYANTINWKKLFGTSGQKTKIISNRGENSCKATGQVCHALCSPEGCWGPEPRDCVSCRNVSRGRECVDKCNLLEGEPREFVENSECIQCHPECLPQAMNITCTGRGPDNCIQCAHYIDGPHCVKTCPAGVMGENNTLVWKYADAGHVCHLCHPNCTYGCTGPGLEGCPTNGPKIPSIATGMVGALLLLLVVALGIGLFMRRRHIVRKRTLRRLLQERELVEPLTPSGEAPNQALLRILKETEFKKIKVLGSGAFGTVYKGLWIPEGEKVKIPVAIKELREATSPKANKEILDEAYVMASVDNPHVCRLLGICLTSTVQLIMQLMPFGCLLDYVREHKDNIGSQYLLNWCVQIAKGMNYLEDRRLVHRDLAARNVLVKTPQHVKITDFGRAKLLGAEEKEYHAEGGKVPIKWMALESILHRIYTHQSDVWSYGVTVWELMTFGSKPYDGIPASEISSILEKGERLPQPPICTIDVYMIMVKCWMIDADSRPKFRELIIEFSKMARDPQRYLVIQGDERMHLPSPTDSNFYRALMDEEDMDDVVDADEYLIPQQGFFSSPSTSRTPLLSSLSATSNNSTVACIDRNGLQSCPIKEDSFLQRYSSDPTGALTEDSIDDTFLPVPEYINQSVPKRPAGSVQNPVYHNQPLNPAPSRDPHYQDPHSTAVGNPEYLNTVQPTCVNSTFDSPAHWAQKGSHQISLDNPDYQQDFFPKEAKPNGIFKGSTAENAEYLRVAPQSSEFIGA
Chain of EGFR phosphorylation in A431 (EGFR wild-type) cells (P00533 25-1210): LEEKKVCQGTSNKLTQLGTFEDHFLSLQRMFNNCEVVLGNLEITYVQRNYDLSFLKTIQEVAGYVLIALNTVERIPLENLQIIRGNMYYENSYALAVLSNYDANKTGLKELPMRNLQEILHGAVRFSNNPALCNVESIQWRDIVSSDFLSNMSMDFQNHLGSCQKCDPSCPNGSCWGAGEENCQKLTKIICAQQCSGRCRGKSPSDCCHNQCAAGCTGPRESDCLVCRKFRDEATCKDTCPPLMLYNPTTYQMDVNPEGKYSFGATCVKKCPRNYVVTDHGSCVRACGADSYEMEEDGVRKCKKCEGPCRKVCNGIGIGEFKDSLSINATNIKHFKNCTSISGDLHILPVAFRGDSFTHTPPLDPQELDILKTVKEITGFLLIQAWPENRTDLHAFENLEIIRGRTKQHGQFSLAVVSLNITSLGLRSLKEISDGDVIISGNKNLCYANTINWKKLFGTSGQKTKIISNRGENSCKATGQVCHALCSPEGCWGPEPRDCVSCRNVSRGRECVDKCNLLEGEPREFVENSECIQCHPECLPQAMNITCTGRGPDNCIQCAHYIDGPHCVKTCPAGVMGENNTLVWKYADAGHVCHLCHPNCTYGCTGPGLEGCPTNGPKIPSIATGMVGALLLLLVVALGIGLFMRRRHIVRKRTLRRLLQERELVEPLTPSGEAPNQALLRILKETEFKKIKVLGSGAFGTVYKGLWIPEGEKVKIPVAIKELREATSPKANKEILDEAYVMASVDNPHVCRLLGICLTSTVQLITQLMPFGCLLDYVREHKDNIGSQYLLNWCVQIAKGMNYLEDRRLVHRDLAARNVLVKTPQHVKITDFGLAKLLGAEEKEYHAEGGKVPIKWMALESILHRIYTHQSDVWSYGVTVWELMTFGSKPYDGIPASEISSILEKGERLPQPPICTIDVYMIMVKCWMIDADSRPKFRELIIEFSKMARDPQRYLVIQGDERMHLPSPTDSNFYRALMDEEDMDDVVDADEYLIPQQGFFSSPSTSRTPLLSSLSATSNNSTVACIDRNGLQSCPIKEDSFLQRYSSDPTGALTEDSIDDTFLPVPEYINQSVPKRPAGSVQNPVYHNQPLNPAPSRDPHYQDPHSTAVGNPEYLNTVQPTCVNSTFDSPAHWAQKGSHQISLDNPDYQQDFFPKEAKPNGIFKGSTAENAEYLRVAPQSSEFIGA
Chain of wild-type EGFR kinase (P00533 25-1210): as above

| SMILES | IC50 ([1]; Homo sapiens, NCI-H1975) | Selective inhibitory activity against cell growth [IC50 (A431 cell)/IC50 (H1975 cell)] [1] | IC50 [2] | IC50 [4, 8] | IC50 [5] | IC50 [6] | Selective inhibitory activity against targets at the cell level [IC50 (A431 cell)/IC50 (H1975 cell)] [6] | IC50 ([3]; Mus musculus, NIH3T3, 72 hours) | activity in the T790M mutant cell line H1975 [7] | IC50 [1] | IC50 ([3]; 72 hours) | IC50 ([4]; cell growth) |
| --- | --- | --- | --- | --- | --- | --- | --- | --- | --- | --- | --- | --- |
| C=CC(=O)Nc1cc(Nc2nc(N3CCOCC3)c3cc[nH]c3n2)c(OC)cc1N(C)CCN(C)C [Compound 2, N-(2-((2-(dimethylamino)ethyl)(methyl)amino)-4-methoxy-5-(4-morpholino-7H-pyrrolo[2,3-d]pyrimidin-2-ylamino)phenyl)acrylamide] | 0.143 µM | 28 | > 1 µM | 4.01 µM | > 10 µM | 0.322 µM | 31 | > 10 µM | – | – | – | – |
| C=CC(=O)Nc1cc(Nc2nc(-c3cnn(C)c3)c3cc[nH]c3n2)c(OC)cc1N1CC(N(C)C)C1 [Compound 11, N-(2-(3-(dimethylamino)azetidin-1-yl)-4-methoxy-5-(4-(1-methyl-1H-pyrazol-4-yl)-7H-pyrrolo[2,3-d]pyrimidin-2-ylamino)phenyl)acrylamide Formate] | – | – | > 1 µM | – | – | – | – | – | – | – | – | – |
| C#Cc1cccc(Nc2ncnc3cc(OCCOC)c(OCCOC)cc23)c1 [erlotinib] | – | – | – | – | – | – | – | – | greater than 3 uM | – | – | – |
| C=CC(=O)Nc1cc(Nc2nc(OC3CN(S(C)(=O)=O)C3)c3cc[nH]c3n2)c(OC)cc1N(C)CCN(C)C [Compound 3, N-(2-((2-(dimethylamino)ethyl)(methyl)amino)-4-methoxy-5-(4-(1-(methylsulfonyl)azetidin-3-yloxy)-7H-pyrrolo[2,3-d]pyrimidin-2-ylamino)phenyl)acryl amide] | – | 101 | 0.088 µM | – | 0.86 µM | 0.032 µM | 26.9 | – | – | 0.029 µM | > 10 µM | 2.93 µM |
| C=CC(=O)Nc1cc(Nc2nc(-c3cnn(C)c3)c3cc[nH]c3n2)c(OC)cc1N1CCN(C)CC1 [Compound 12, N-(4-methoxy-5-(4-(1-methyl-1H-pyrazol-4-yl)-7H-pyrrolo[2,3-d]pyrimidin-2-ylamino)-2-(4-methylpiperazin-1-yl)phenyl)acrylamide] | – | – | > 1 µM | – | – | – | – | – | – | – | – | – |
| C=CC(=O)Nc1cc(Nc2nc(-c3cnn(C)c3)c3cc[nH]c3n2)c(OC)cc1N1CCC(N(C)C)CC1 [Compound 9, N-(2-(4-(dimethylamino)piperidin-1-yl)-4-methoxy-5-(4-(1-methyl-1H-pyrazol-4-yl)-7H-pyrrolo[2,3-D]pyrimidin-2-ylamino)phenyl)acrylamide] | 0.3 µM | 14.5 | > 1 µM | 4.34 µM | > 10 µM | 0.384 µM | >26 | > 10 µM | – | – | – | – |
| COc1cc2ncnc(Nc3ccc(F)c(Cl)c3)c2cc1OCCCN1CCOCC1 [gefitinib] | – | – | – | – | – | – | – | – | greater than 3 uM | – | – | – |
| CN(C)C/C=C/C(=O)Nc1cc2c(Nc3ccc(F)c(Cl)c3)ncnc2cc1O[C@H]1CCOC1 [BIBW2992, reference compound] | 0.088 µM | – | – | – | – | – | – | 2.75 µM | – | – | – | – |
| C=CC(=O)Nc1cc(Nc2nc(-c3cnn(C)c3)c3c(Cl)c[nH]c3n2)c(OC)cc1N1CCC(N(C)C)CC1 [Compound 13, N-(5-(5-chloro-4-(1-methyl-1H-pyrazol-4-yl)-7H-pyrrolo[2,3-d]pyrimidin-2-ylamino)-2-(4(dimethylamino)piperidin-1-yl)-4-methoxyphenyl)acrylamide] | 0.531 µM | – | – | 3.04 µM | – | – | – | > 10 µM | – | – | – | – |

The next lines start with results.

| IC50 ([1]; Homo sapiens, NCI-H1975) | Selective inhibitory activity against cell growth [IC50 (A431 cell)/IC50 (H1975 cell)] [1] | IC50 [2] | IC50 [4, 8] | IC50 [5] | IC50 [6] | Selective inhibitory activity against targets at the cell level [IC50 (A431 cell)/IC50 (H1975 cell)] [6] | SMILES | IC50 ([3]; Mus musculus, NIH3T3, 72 hours) | activity in the T790M mutant cell line H1975 [7] | IC50 [1] | IC50 ([3]; 72 hours) | IC50 ([4]; cell growth) |
| --- | --- | --- | --- | --- | --- | --- | --- | --- | --- | --- | --- | --- |
| 0.225 µM | 7.5 | 0.315 µM | 1.69 µM | 1.87 µM | 0.204 µM | 9.2 | C=CC(=O)Nc1cc(Nc2nc(-c3ccccc3)c3cc[nH]c3n2)c(OC)cc1N(C)CCN(C)C [Compound 7, N-(2-((2-(dimethylamino)ethyl)(methyl)amino)-4-methoxy-5-(4-phenyl-7H-pyrrolo[2,3-d]pyrimidin-2-ylamino)phenyl)acrylamide] | 2.42 µM | – | – | – | – |
| 0.009 µM | 34.2 | 0.015 µM | 0.308 µM | 0.119 µM | 0.016 µM | 7.4 | C=CC(=O)Nc1cc(Nc2nc(-c3cn(C)c4ccccc34)c3cc[nH]c3n2)c(OC)cc1N(C)CCN(C)C [Compound 5, N-(2-((2-(dimethylamino)ethyl)(methyl)amino)-4-methoxy-5-(4-(1-methyl-1H-indol-3-yl)-7H-pyrrolo[2,3-d]pyrimidin-2-ylamino)phenyl)acrylamide] | 2.63 µM | – | – | – | – |
| 0.112 µM | 34 | – | 3.8 µM | 8.98 µM | 0.166 µM | 54.1 | C=CC(=O)Nc1cc(Nc2nc(-c3cnn(C)c3)c3cc[nH]c3n2)c(OC)cc1OCCN(C)C [Compound 10, N-(2-(2-(dimethylamino)etboxy)-4-methoxy-5-(4-(1-methyl-1H-pyrazol-4-yl)-7H-pyrrolo[2,3-d]pyrimidin-2-ylamino)phenyl)acrylamide] | > 10 µM | – | – | – | – |
| 0.079 µM | 22.8 | 0.347 µM | 1.8 µM | 1.67 µM | 0.096 µM | 17.4 | C=CC(=O)Nc1cc(Nc2nc(-c3cccnc3)c3cc[nH]c3n2)c(OC)cc1N(C)CCN(C)C [Compound 6, N-(2-((2-(dimethylamino)ethyl)(methyl)amino)-4-methoxy-5-(4-(pyridin-3-yl)-7H-pyrrolo[2,3-d]pyrimidin-2ylamino)phenyl)acrylamide] | 5.1 µM | – | – | – | – |
| 0.043 µM | 36.3 | 0.393 µM | 1.56 µM | 3.67 µM | 0.112 µM | 32.7 | C=CC(=O)Nc1cc(Nc2nc(-c3cnn(C)c3)c3cc[nH]c3n2)c(OC)cc1N(C)CCN(C)C [Compound 1, N-(2-((2-(dimethylamino)ethyl)(methyl)amino)-4-methoxy-5-(4(1-methyl-1H-pyrazol-4-yl)-7H-pyrrolo[2,3-d]pyrimidn-2-ylamino)phenyl)acrylamide] | > 10 µM | – | – | – | – |
| 0.029 µM | 38.7 | 0.039 µM | 1.12 µM | 0.254 µM | 0.015 µM | 17 | C=CC(=O)Nc1cc(Nc2nc(-c3cnc4c(ccn4C)c3)c3cc[nH]c3n2)c(OC)cc1N(C)CCN(C)C [Compound 4, N-(2-((2-(dimethylamino)ethyl)(methyl)amino)-4-methoxy-5-(4-(1-methyl-1H-pyrrolo[2,3-b]pyridin-5-yl)-7H-pyrrolo[2,3-d]pyrimidin-2-ylamino)phenyl)acrylamide] | 2.09 µM | – | – | – | – |
